Here are results for five molecules from patent US20100317639A1 (priority 2005, published 2010).

Series [1] concerns X-adrenoleukodystrophic fibroblasts. The following applies: patients suffering from adrenoleucodistrophy; literature; cited from earlier work.
The next series relates to ACAT. Conditions: literature statement; cited from earlier work.
For series [2] the following is noted: literature, cited from earlier work.
The conditions of series [3]: administered in form of triglyceride; literature; cited from earlier work.
Series [4] concerns acyl-coenzyme A:cholesterol acetyltransferase enzyme (ACAT). In words: Effect of the ester on ACAT activity in rat hepatic microsomes (14C-linoleic acid incorporation into cholesterol esters, TLC, beta counter). The format is biochemical. Conditions: rat liver microsomes 200 micrograms, mean+/-standard error. As for the experimental part: For the experiments of effectiveness a test to evaluate the effect of the ester formed from linoleic acid obtained from example 1 and example 4 on acyl-coenzyme A:cholesterol acetyltransferase enzyme (ACAT) activity was performed. The experiment was performed in vitro according to a classic pharmacology method, used for the evaluation of the activity of this enzyme, reported in the method book: Drug discovery and evaluation, Pharmacological assay, Ed. H. G: Vogel (Springer), p. 1119, 2002.
Hepatic microsomes were prepared as well as in the example 1.
Eight tubes were prepared, in all tubes linoleic acid-^14C (10 microM) was incubated in presence of 200 micrograms of microsomes. Each tube contained phosphate buffer 0.04 M KH2PO4, pH 7.4 with 0.05 M KCl, 0.03 EDTA, 0.3 M sucrose, 1 mM α-cyclodextrin, final volume 750 microliters. The eight tubes have been incubated at 37° C. for 10 min.
The esters of example 1 and 4 were pooled together and three sample solutions of concentration 12.5, 25 and 50 micromolar respectively were prepared in duplicate, therefore obtaining six sample solutions.
The six sample solutions were then transferred respectively in six of eight tubes prepared as above at the end of the 10 minutes (each concentration of ester separately incubated per tube). The seventh tube was added with ^14C-linoleic acid alone (without esters) and the eighth with ethanol alone (carrier in which the esters were resuspended) to evaluate a possible effect of ethanol on the enzymatic activity. All the eight tubes have been incubated at 37° C. for four minutes.
At the end of the time the reaction was stopped by adding chloroform:methanol 2:1. The samples of the eight tubes were extracted according to the Folch's method (1957). The lower phase of each sample containing the lipid extracts was separated and dried, then taken-up again in 1 ml of chloroform:methanol 2:1. The extract of each sample was dried and subjected to TLC. […]
Spots were highlighted through iodine vapour. The bands which correspond to the standard for each TLC were taken off from the plate and counted in beta counter. […]

Consider `C[C@]12CC[C@@H](O)C[C@@H]1CC[C@@H]1[C@@H]2CC[C@]2(C)[C@@H](O)CC[C@@H]12` [5α-androstan-3α,17β-diol], for which, in series [1], the beta-oxidation entry is “increase beta-oxidation” and the cholesterol esterification processes result is “reduce cholesterol esterification processes”.

Regarding `CCCCCCCN(Cc1ccc(CC(C)(C)C)cc1)C(=O)Nc1ccc(F)cc1F` [CL 277,082, N-(2,4-difluorophenyl)-N-(4-neopentylbenzyl)-N-(n-heptyl)urea], in the series with ACAT, the “inhibiting the ACAT activity” value was “very strong and specific”.

For the molecule `C[C@]12CCC(=O)C[C@@H]1CC[C@@H]1[C@@H]2CC[C@]2(C)[C@@H](O)CC[C@@H]12` [dihydrotestosterone, 5α-androstan-17β-ol-3-one], in series [1], the beta-oxidation result is reported as “increase beta-oxidation” and the cholesterol esterification processes result is “reduce cholesterol esterification processes”.

For `CCCCCCCC/C=C\CCCCCCCCCCCC(=O)O` [erucic acid, erucic acid (C22:1)], the effectiveness in vivo result in series [2] (administered in form of triglyceride) is recorded as “little effective”. Further, the “crossing of the hematoencephalic barrier” value in series [2] (in vivo) is listed as “failed to cross the hematoencephalic barrier”. Further, the effectiveness in vitro result in series [3] is on record as “only partially effective”.

In the case of “monoester of the androgen 5α-androstan-3α,17β-diol (3α-diol) and of the linoleic acid (LA) (cis,cis-9,12-octadecadienoic acid) (18:2, n-6) [Example 1]”, the figures for the “inhibition percentage with reference to the untreated sample” value in series [4] (ester 12.5 microM), in series [4] (ester 25 microM) and in series [4] (ester 50 microM) were 2.5, 44% and 28%, respectively.
